In series [1] the test system is Erysiphe polygoni (synonym: Erysiphe betae). In words: Test on the preventive effect against cucumber powdery mildew. As to conditions: 216 h, test solution A 500 ppm, 5 ml per pot sprayed, cucumber cotyledon stage, 9 days after inoculation. The class given is in vivo. As to the method: Compounds of the present invention were dissolved in a solvent for emulsion (a mixture of Sorpol (registered trademark) 3005XL (manufactured by Toho Chemical Industry Co., Ltd.): N-methylpyrrolidone: Solvesso (registered trademark) 200 (manufactured by ExxonMobil Chemical) in a ratio of 1:5:2) to prepare 20 wt % emulsifiable concentrates. Then, distilled water was added to dilute the emulsifiable concentrates to the prescribed concentration (500 ppm), and the obtained solutions were used in the following the Test Examples 1 to 8. Cucumber (varieties: Sagami Hanjiro) was seeded in 90 cm^3 plastic pot, and at the cotyledon stage, 5 ml per pot of test solution A of the compounds of the present invention was sprayed. After drying in air, the pot was placed in an air-conditioned greenhouse (20° C.), and a suspension of conidium of Erysiphe polygoni (synonym: Erysiphe betae) was sprayed. After the pot were replaced at the same temperature for 9 days, the proportion of the formed lesion in the inoculated leaves were counted to calculate the control value in accordance with the following formula. The test was carried out in duplicate. Control value=[1−(lesion area ratio in treated plot/lesion are a ratio in non-treated plot)]×100

In the next series the test system is Botrytis cinerea. In words: Test on the preventive effect against cucumber gray mold (spore inoculation). The format is in vivo. As to conditions: 72 h, test solution A 500 ppm, 5 ml per pot, cucumber cut leaves, conidium inoculation, 3 days at 20° C. As for the experimental part:
Compounds of the present invention were dissolved in a solvent for emulsion (a mixture of Sorpol (registered trademark) 3005XL (manufactured by Toho Chemical Industry Co., Ltd.): N-methylpyrrolidone: Solvesso (registered trademark) 200 (manufactured by ExxonMobil Chemical) in a ratio of 1:5:2) to prepare 20 wt % emulsifiable concentrates. Then, distilled water was added to dilute the emulsifiable concentrates to the prescribed concentration (500 ppm), and the obtained solutions were used in the following the Test Examples 1 to 8. Cucumber (varieties: Sagami Hanjiro) was seeded in 90 cm^3 plastic pot, and at the cotyledon stage, 5 ml per pot of test solution A of the compounds of the present invention was applied. After drying in air, the treated leaves were cut and transferred in plastic containers. 30 μl of a mixture of a suspension of conidium of Botrytis cinerea and a dissolved PDA medium in a ratio of 1:1 was dropped on each treated leaf and inoculated. After the inoculation, the plastic containers were placed in 20° C. with humid conditions for 3 days, and the proportion of the formed lesion in the inoculated leaves were counted to calculate the control value in accordance with the same formula as in the Test Example 1. The test was carried out in duplicate.

The subject of series [2] is Colletotrichum lagenarium (Synonym: Colletotrichum orbiculare). In words: Test on the preventive effect against cucumber anthracnose. As to conditions: 168 h, test solution A 500 ppm, 5 ml per pot sprayed, 2 days inoculation chamber then 7 days at 23° C. The class given is in vivo. As to the method:
Compounds of the present invention were dissolved in a solvent for emulsion (a mixture of Sorpol (registered trademark) 3005XL (manufactured by Toho Chemical Industry Co., Ltd.): N-methylpyrrolidone: Solvesso (registered trademark) 200 (manufactured by ExxonMobil Chemical) in a ratio of 1:5:2) to prepare 20 wt % emulsifiable concentrates. Then, distilled water was added to dilute the emulsifiable concentrates to the prescribed concentration (500 ppm), and the obtained solutions were used in the following the Test Examples 1 to 8. Cucumber (varieties: Sagami Hanjiro) was seeded in 90 cm^3 plastic pot, and at the cotyledon stage, 5 ml per pot of test solution A of the compounds of the present invention was sprayed. One day later, a suspension of conidium of Colletotrichum lagenarium (Synonym: Colletotrichum orbiculare) was sprayed, and the pot was left for 2 days in the inoculation chamber at 25° C. under humidity of 100% RH. Thereafter, the pot was placed in an air-conditioned greenhouse (23° C.) and left at the same temperature for 7 days. Thereafter, the proportion of the formed lesion in the inoculated leaves were measured to calculate the control value in accordance with the same formula as in Test Example 1. The test was carried out in duplicate.

The subject of series [3] is Phaeosphaeria nodorum (Synonym: Septoria nodorum). In words: Test on the preventive effect against wheat glume blotch. The class given is in vivo. As to conditions: Parastagonospora nodorum, 144 h; test solution A 500 ppm, 5 ml per pot, wheat 1.3-leaf stage, 2 days inoculation chamber then 6 days at 20° C. As to the method:
Compounds of the present invention were dissolved in a solvent for emulsion (a mixture of Sorpol (registered trademark) 3005XL (manufactured by Toho Chemical Industry Co., Ltd.): N-methylpyrrolidone: Solvesso (registered trademark) 200 (manufactured by ExxonMobil Chemical) in a ratio of 1:5:2) to prepare 20 wt % emulsifiable concentrates. Then, distilled water was added to dilute the emulsifiable concentrates to the prescribed concentration (500 ppm), and the obtained solutions were used in the following the Test Examples 1 to 8. Wheat (varieties: Haruyutaka) was seeded in 90 cm^3 plastic pot, and at 1.3-leaf stage, 5 ml per pot of test solution A of the compounds of the present invention was applied. One day after treatment, a suspension of conidium of Phaeosphaeria nodorum (Synonym: Septoria nodorum) was sprayed to the wheat, and the pot was left in the inoculation chamber at 20° C. under humidity of 100% RH for 2 days. Then, the pot was placed in an air-conditioned greenhouse (20° C.) for 6 days. The proportion of the formed lesion in the inoculated leaves were measured to calculate the control value in accordance with the same formula as in the Test Example 1. The test was carried out in duplicate.

For series [4], the system named is Colletotrichum lagenarium (Synonym: Colletotrichum orbiculare). In words: Test on the preventive effect against cucumber anthracnose. The format is in vivo. As to conditions: 168 h, 100 ppm solution (symbol *), 5 ml per pot sprayed, 2 days inoculation chamber then 7 days at 23° C.

Consider 2 molecules from patent US10029986B2, “Alkynyl pyridine-substituted amide compound and pesticide” (NISSAN CHEMICAL INDUSTRIES, LTD., priority 2014, dated 2018).

The structures appear in SMILES notation. Bounds are passed on as bounds.

`CC(NC(=O)c1cccnc1C(F)F)C(SCC(F)(F)F)c1ncc(C#CC2CC2)cc1Cl` (stereo not drawn) [3-033a]: the melting point fell in the range of 72 to 74 °C. In series [1], this molecule came in with a pest or weed control at 500 µg/mL of no less than 70%. In the series on Botrytis cinerea, this molecule showed a pest or weed control at 500 µg/mL of no less than 70%. In series [2], this molecule yielded a pest or weed control at 500 µg/mL of no less than 70%. This molecule displayed a pest or weed control at 500 µg/mL in series [3] of no less than 70%.

As for `CC(Cc1ncc(C#CCO)cc1Cl)NC(=O)c1cn(C)nc1C(F)F` (stereo not drawn) [8-025], in series [4], the pest or weed control at 100 ppm was no less than 70%.
